Test results as given in US20260294922A1, “Inhibitors of JUN N-Terminal Kinases (JNK1, JNK2, and/or JNK3) and Mitogen-Activated Protein Kinases (MAPK8, MAPK9, and/or MAPK10) and Methods of Using Same” (Baylor College of Medicine, priority 2023, published 2026).
Several values for one entry are separate records, joined by “and”; a condition that tells them apart may be missing. Identical values can stand only once. Entries after “also recorded” stand apart in the source; their conditions may differ.

Legend:
endometriotic lesions = experiment: Immunofluorescent staining of endometriotic lesions from treated mice; assay type: in vivo; conditions: 14 days, intraperitoneal
Excerpt: FIG. 23 depicts immunofluorescent staining of sections of remaining endometriotic lesions following 14 days of treatment with CDD-2728 or with a vehicle solution (i.e., Captisol) by intraperitoneal administration.
This illustrates a common mechanism of JNK-I from the chemical series of the disclosure and their ability to target endometriotic lesions, and the innate immune cells that drive an inflammatory response within the lesions.

ERK1 = target: T1, ERK1 (Homo sapiens, UniProt P27361); experiment: ThermoFisher SelectScreen, ERK1; assay type: binding
T1 construct: purchased ThermoFisher (SelectScreen, outsourced service)
T1 sequence (P27361 whole entry): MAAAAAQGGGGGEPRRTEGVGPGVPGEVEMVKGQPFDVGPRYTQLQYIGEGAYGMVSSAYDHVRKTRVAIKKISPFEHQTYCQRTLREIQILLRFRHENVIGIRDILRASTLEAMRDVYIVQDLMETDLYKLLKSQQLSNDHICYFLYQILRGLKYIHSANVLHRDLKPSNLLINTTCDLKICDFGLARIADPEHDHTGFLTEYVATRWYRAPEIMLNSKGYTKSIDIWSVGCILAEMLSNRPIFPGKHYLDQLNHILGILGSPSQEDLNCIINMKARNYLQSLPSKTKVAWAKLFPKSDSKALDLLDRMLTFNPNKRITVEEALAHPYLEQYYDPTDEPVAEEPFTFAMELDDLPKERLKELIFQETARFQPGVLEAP

HepG2 cells = experiment: HepG2 cell viability (ATP consumption); conditions: CDD-2575 25 μM; CDD-2728, CDD-2624 up to 75
Protocol: This assay reflects cell viability. […] To determine if the responses observed in endometriotic epithelial cells and endometriotic stromal cell cultures were cytotoxic, cell viability was performed in HepG2 cells.

[1] = system: primary human endometriotic stromal cells (patient 50); experiment: IL-1β-stimulated pro-inflammatory gene expression in primary endometriotic stromal cells, patient 50; assay type: cell-based; conditions: patient 50, relative to CDD-939
Excerpt: FIGS. 14G-14H represent responses of primary human endometriotic stromal cells [from the endometrioma lesion] from endometriosis patient “50”.
FIGS. 15A-15H provide replicate results of the response of primary human endometriotic stromal cells (derived from the lesions) obtained from endometriosis patient “50”. In each example. […] In each example, CDD-2728 inhibited IL-1β-stimulated pro-inflammatory biomarker responses in primary endometriotic stromal cell cultures. Lower concentrations of JNK inhibitors were required to reduce the proinflammatory response of IL-1β in stromal cells than the concentration of JNK-I in 12Z epithelial cells.
Another target tissue of JNK inhibitors in the treatment of endometriosis are endometriotic stromal cells. To further exemplify the relevance of the discoveries of novel JNK inhibitors for endometriosis, stromal cells obtained from the endometriotic lesions of a patient with endometriosis have been cultured. The compliant identifier for this patient is Eosis50. These cells represent stromal cells from an ovarian endometrioma. Similar to culture system described elsewhere herein, the inflammatory environment of peritoneal endometriosis was simulated by the addition of IL-1β and increasing concentrations of either bentamapimod or CDD-2728 were added to these stromal cell cultures. […]

pSer63 and pSer73 Jun = experiment: In-cell Western blot of Jun phosphorylation; assay type: cell-based; conditions: 0.1, 1 and 10 μM
Protocol: The top section of the in-cell Western is pSer73 and the lower section is pSer63. Experiments were performed in triplicate for 3 concentrations (0.1 μM, 1 μM, and 10 μM) FIGS. 27B-27C: graphical summary of the in-cell Western blot is provided for pSer73 (FIG. 27B) and pSer63 (FIG. 27C).

iHEEC = experiment: Beta-catenin expression in IL-1β-treated iHEEC; assay type: cell-based, human; design: beta-catenin expression at cell contact points: dose or concentration left out as unconfirmed
Protocol: FIGS. 29A-29C depict the impact of JNK inhibition on the cellular expression of beta-catenin located at the cell surface and throughout the cytoplasm of iHEEC, wherein HEEC cells were treated with vehicle (FIG. 29A), IL-1β (FIG. 29B), or IL-1β and […] CDD-2728 (FIG. 29C). The increased cytoplasmic and plasma membrane expression of β-catenin following exposure to IL-1β supports the role of β-catenin in facilitating epithelial-to-mesenchymal transdifferentiation. The cellular morphology is consistent with that of columnar epithelial cells. iHEEC were treated with JNK-I or vehicle for 30 min before addition of IL-1β, followed by incubation of cells for another 15 minutes. Addition of IL-1β over this short time course caused a dramatic change in the expression of beta-catenin in iHEEC endometriotic epithelial cells, and a noticeable change in phospho-JNK throughout the cytoplasm, induced by IL-1β. Beta catenin expression at contact points between cells is increased by IL-1β, and inhibited by CDD-2728.

[2] = Plasma ALT and AST after oral administration; assay type: in vivo, mouse; conditions: 24 h post-dose, individual mice 1-4
[3] = Pharmacokinetics after oral administration in mice; assay type: in vivo; conditions: mouse, 50 mg/kg, plasma
Excerpt: Based on stability and estimated half-life of compounds exposed to liver microsome in vitro, CDD-2728 was selected for PK evaluation.

CN(C)C(=O)c1cc(NC(=O)c2cc3c(-c4cnc5[nH]ccc5c4)cccc3s2)ccc1O [CDD-2728, N-(3-(dimethylcarbamoyl)-4-hydroxyphenyl)-4-(1H-pyrrolo[2,3-b]pyridin-5-yl)benzo[b]thiophene-2-carboxamide]
CD31 (endothelial cells, angiogenesis) (endometriotic lesions): reduces the presence of cells corresponding to leukocytes, platelets, and endothelial cells (CD31); also recorded: angiogenesis (anti-CD31 antibody) | macrophage infiltration (F4/80) (endometriotic lesions): decreases infiltration of endometriotic lesions by macrophages (F4/80) | proliferation of lesions (Ki67) (endometriotic lesions): reduced rates of proliferative cell growth; also recorded: reduced cellular proliferation | Kd (ERK1): 909 nM | inhibition of ERK1/2 (ERK1; ERK1/2, in words): only modest inhibition of ERK1/2 | effect on HepG2 cell viability / ATP consumption (HepG2 cells): tolerated (up to 75 μM); also recorded: neither CDD-2624 or CDD-2728 had significant effects on ATP consumption | inhibition of IL-6, IL-8, MMP-3 and PTGS2 gene expression [1]: effective inhibitor of IL-6 gene expression; also recorded: more effective inhibitor of the biomarkers IL-8, MMP-3, and PTGS2 gene expression than CDD-939; also recorded: superior efficacy and potency | Jun phosphorylation (pSer73, pSer63), relative to Tanzisertib (pSer63 and pSer73 Jun): more effective inhibitors of Jun phosphorylation than Tanzisertib | cell viability or cell density (iHEEC; short time course, iHEEC): no apparent changes in cell viability or cell density | beta-catenin expression at cell contact points (iHEEC; with IL-1β): inhibited | ALT [2]: 43.49 IU/L and 21.92 IU/L and 36.24 IU/L and 30.94 IU/L | AST [2]: 69.13 IU/L and 76.02 IU/L and 61.79 IU/L and 41.64 IU/L | AUC(0-inf) [3]: 3.03 ± 0.98 µM·h | AUC(0-t) [3]: 2.95 ± 0.95 µM·h | CL/F [3]: 650 mL/min/kg | Cmax [3]: 1510 ± 530 nM | Tmax [3]: 0.63 ± 0.25 h | half-life [3]: 1.48 ± 0.32 h | MRT last ([3]; read-out: MRT0-t): 1.7 ± 0.34 h | MRT inf ([3]; read-out: MRT0-∞): 1.91 ± 0.44 h
